According to patent US20190082696A1, “METHOD FOR CONTROLLING PESTS OF PLANTS” (BASF SE, priority 2016, published 2019):

Test system: green peach aphid (Myzus persicae)
Assay: Biological activity of mixtures: green peach aphid systemic test with Colby analysis
Assay type: in vivo
Conditions: 3 days
From the text: Synergism can be described as an interaction where the combined effect of two or more compounds is greater than the sum of the individual effects of each of the compounds. The presence of a synergistic effect in terms of percent control, between two mixing partners (X and Y) can be calculated using the Colby equation (Colby, S. R., 1967, Calculating Synergistic and Antagonistic Responses in Herbicide Combinations, Weeds, 15, 20-22):
When the observed combined control effect is greater than the expected combined control effect (E), then the combined effect is synergistic.
The analysis of synergism or antagonism between the mixtures or compositions was determined using Colby's equation.
For evaluating control of green peach aphid (Myzus persicae) through systemic means the test unit consisted of 96-well-microtiter plates containing liquid artificial diet under an artificial membrane.
The compounds or mixtures were formulated using a solution containing 75% water and 25% DMSO. Different concentrations of formulated compounds or mixtures were pipetted into the aphid diet, using a custom built pipetter, at two replications. […]
After application, 5-8 adult aphids were placed on the artificial membrane inside the microtiter plate wells. […] Aphid mortality and fecundity was then visually assessed.

CC1(C)C(C=C(Cl)Cl)C1C(=O)OC(C#N)c1cccc(Oc2ccccc2)c1 (centres unmarked) [Alphacypermethrin]
Average Control % (10 ppm): 0%

CCC(=O)N1CC2(C1)OCc1cc(C3=NOC(c4cc(Cl)c(F)c(Cl)c4)(C(F)(F)F)C3)ccc12 (centres unmarked) [Compound I-1]
Average Control % (0.4 ppm): 0%
